Laboratory results as given in patent publication US10906946B2, “Thrombin inhibitors” (priority 2015, dated 2021).
Peptide text beside a SMILES is read from it.

Legend:
[1] = tested on: FeCl3-induced carotid artery thrombosis; experiment: Ferric chloride-induced carotid artery thrombosis model; assay type: in vivo, C57BL/6 male mice; conditions: mice, 10% FeCl3
Protocol: All animal experiments were carried out under protocol 041/12 approved by Institutional Animal Care and Use Committee, National University of Singapore. The ferric chloride induced carotid artery thrombosis model was performed as described previously [Eckly A, et al., J Thromb Haemost 9: 779-89 (2011)] with minor modifications. Typically, C57BL/6 male mice (9-11 weeks old, 24.5-27.5 g) were anesthetized with an intraperitoneal injection of ketamine (75 mg/kg) and medetomidine (1 mg/kg). 100 μL of different doses of avathrin were injected into the mice via tail vein. The right carotid artery was dissected using blunt dissection and a vascular injury was caused applying filter paper of 2 mm×2 mm saturated with FeCl3 on top of the carotid artery. After 3 min, the filter paper was removed and the vessel was washed with sterile normal saline. To determine the time to occlusion, a miniature Doppler flow probe (Transonic Systems Inc., Ithaca, N.Y., USA) was placed around the carotid artery and blood flow was recorded using a Transonic® flow meter from ADInstruments (Dunedin, New Zealand). The maximal time for monitoring the blood flow after injury was 30 min. Mice were euthanized by cervical dislocation immediately after the completion of the experiment and prior to recovery from anesthesia.

thrombin = molecular target: T1, thrombin (Homo sapiens, UniProt P00734); experiment: Cleavage of peptide by thrombin (RP-HPLC, ESI-MS); assay type: biochemical
T1 construct: residues in the termini of the light chain; and in the autolysis loop and C-terminus of the heavy chain; purchased Chemo-Sero-Therapeutic Research Institute (Kaketsuken, Japan), as a gift, not bought
Protocol: A. Evaluation of avathrin cleavage by thrombin by HPLC chromatograms. Avathrin (150 μM) was incubated with thrombin (5 μM) for various times and the reaction mixtures were separated using RP-HPLC; the masses of the cleavage products were analyzed with ESI-MS. At 0 min (upper panel), a single peak corresponding to full length avathrin (mass 3139 Da) was identified. At 120 min (middle panel), two new peaks corresponding to N-terminal cleavage product (^1[…]^10 of SEQ ID NO: 1; mass 982 Da) and C-terminal cleavage product ([…] (SEQ ID NO: 4); mass 2176 Da) were identified in addition to avathrin peak. At 600 min (lower panel), two peaks corresponding to the N- and C-terminal cleaved products were observed while avathrin peak was not observed, indicating complete cleavage. B. Time-dependent cleavage of avathrin by thrombin. Relative percentages of avathrin, its N- and C-terminal cleavage products were quantified by calculating areas under the curve. Each data point is the mean±S.D. of at least three independent experiments. C. Effect of thrombin cleavage on inhibitory properties of avathrin. Avathrin was incubated with thrombin (0.81 nM) for up to 36 h, and assayed at different time points for its ability to inhibit thrombin amidolytic activity on the chromogenic substrate S2238. […]
Thrombin amidolytic activity assays for all peptides were performed in 96-wells microtiter plates in 50 mM Tris buffer (pH 7.4) containing 100 mM NaCl and 1 mg/ml bovine serum albumin. […] The rates of formation of p-nitroaniline were followed by measuring the absorbance at 405 nm for 10 min with a Tecan InfinitePro M200 microplate reader from Tecan (Männedorf, Switzerland). […] To measure the inhibitory constants, different concentrations of S2238 were used and the residual velocities were determined using the Morrison's tight binding equation. Inhibition of thrombin fibrinogenolytic activity of peptides were tested by measuring absorbance at 650 nm using a Sunrise microplate reader from Tecan (Männedorf, Switzerland) as described previously [Koh C Y, et al., J Biol Chem 282: 29101-13 (2007)]. […] Effects of avathrin on the amidolytic activities of these serine proteases were determined using respective chromogenic substrates. […] After different incubation times, reactions were quenched with 1% TFA (pH 1.8) and loaded onto a Jupiter Proteo column (4 μm, 90 Å, 100×1.0 mm) attached to a Dionex nano-HPLC system from Thermo Fisher Scientific (Waltham, Mass., USA) and eluted using an acetonitrile gradient with 0.05% TFA and 99.95% MilliQ water as eluent A and 0.05% TFA, 19.95% MilliQ water and 80% ACN as eluent B. Masses of all peaks were measured to identify cleavage products, which were subsequently quantified by integrating the peaks and calculating the area under the curves. […]

Structure (SMILES)	time to occlusion (TTO) ([1]; 3 mg/kg intravenously) [min]	time to occlusion (TTO) ([1]; 10 mg/kg intravenously) [min]	time at which complete cleavage by thrombin was observed (thrombin; avathrin 150 μM, thrombin 5 μM) [min]	time to complete cleavage by thrombin (thrombin; peptide incubated with thrombin (30:1)) [h]
CC[C@H](C)[C@H](NC(=O)[C@H](CCCCN)NC(=O)[C@@H]1CCCN1C(=O)[C@@H](NC(=O)[C@H](C)NC(=O)[C@@H](NC(=O)[C@H](CCC(N)=O)NC(=O)[C@H](Cc1c[nH]cn1)NC(=O)CNC(=O)CNC(=O)[C@@H](N)CO)[C@@H](C)O)C(C)C)C(=O)N[C@@H](CO)C(=O)N[C@@H](CCCCN)C(=O)N[C@@H](CCC(N)=O)C(=O)NCC(=O)N[C@@H](CC(C)C)C(=O)NCC(=O)NCC(=O)N[C@@H](CC(=O)O)C(=O)N[C@@H](Cc1ccccc1)C(=O)N[C@@H](CCC(=O)O)C(=O)N[C@@H](CCC(=O)O)C(=O)N[C@H](C(=O)N1CCC[C@H]1C(=O)N[C@@H](CO)C(=O)N[C@@H](CC(=O)O)C(=O)N[C@@H](CCC(=O)O)C(=O)N[C@H](C(=O)N[C@H](C(=O)N[C@@H](CCC(=O)O)C(=O)O)[C@@H](C)CC)[C@@H](C)CC)[C@@H](C)CC [Avathrin] (H-SGGHQTAVPKISKQGLGGDFEEIPSDEIIE-OH; N-terminus and C-terminus assumed)	15.03 ± 3.23	22.51 ± 4.19	600	
CC[C@H](C)[C@H](NC(=O)[C@H](C)NC(=O)[C@H](CC(=O)O)NC(=O)[C@H](CC(=O)O)NC(=O)[C@@H]1CCCN1C(=O)[C@@H](NC(=O)[C@H](CCC(=O)O)NC(=O)[C@H](CCC(=O)O)NC(=O)[C@H](Cc1ccccc1)NC(=O)[C@H](CC(=O)O)NC(=O)CNC(=O)[C@@H]1CCCN1C(=O)[C@@H]1CCCN1C(=O)[C@H](C)NC(=O)[C@@H](NC(=O)[C@H](CO)NC(=O)[C@H](Cc1ccc(O)cc1)NC(=O)[C@H](CCSC)NC(=O)[C@H](CCCCN)NC(=O)[C@@H]1CCCN1C(=O)[C@@H](NC(=O)[C@H](C)NC(=O)[C@H](CCCNC(=N)N)NC(=O)[C@@H](NC(=O)[C@H](C)NC(=O)[C@H](CCC(=O)O)NC(=O)[C@H](CC(=O)O)NC(=O)[C@@H](N)CO)C(C)C)[C@@H](C)CC)[C@@H](C)O)[C@@H](C)CC)C(=O)N[C@@H](CCC(=O)O)C(=O)N[C@@H](CCC(=O)O)C(=O)O [Ultravariegin] (H-SDEAVRAIPKMYSTAPPGDFEEIPDDAIEE-OH; N-terminus and C-terminus assumed)				18
